The results in this text go back to patent US6913900B2, “Plasma prekallikrein activation and kallikrein production assay” (Nippon Zoki Pharmaceutical Co., Ltd., priority 2001, dated 2005).

For test [1], the system named is prekallikrein activating factor (PK activation). The experiment in a line: Inhibition profile of PK activation (prekallikrein activation assay, kallikrein substrate S-2302, O.D. 405 nm). It is filed as biochemical, human. An excerpt:
In embodiments of the invention the reaction time may be fixed or “set.” The reaction time can be “set” by stopping the production of kallikrein, for example, by adding a prekallikrein activation inhibitor to the system of the present invention after a desired reaction time. Also, by adding a coloring or fluorescent synthetic substrate to the reaction system from the start or beginning, the produced amount of kallikrein (coloring or fluorescent intensity) may be observed at different lapses of time. […] When the reaction is stopped, the produced kallikrein can be quantitatively determined using an enzymatic activity of kallikrein as a target, for example, by applying a substrate to kallikrein.
When the reaction is stopped, the produced plasma kallikrein can be determined using an enzymatic activity of the plasma kallikrein as a target by utilizing a substrate to the plasma kallikrein.
(§1) Assays were performed in HEPES buffered saline (HBS) (10 mM Hepes, 137 mM NaCl, 4 mM KCl, 11 mM D-glucose, and 0.5 mg/ml RIA grade bovine serum albumin, pH 7.4), with a kallikrein specific substrate (0.6 mM S-2302). For assays using the cell-free system, 96 well disposable polystyrene microtiter plates (Dynatech Laboratories, Chantilly, Va.) were used. These microtiter plates were pretreated with 1% polyethylene glycol (Aquacide III, Calbiochem, Calif.) in HBS for two hours to prevent adsorption of proteins to polystyrene. The absorbance (O.D. at 405 nm or optical density at 405 nm) was monitored at room temperature on a Molecular Devices (Sunnyvale, Calif.) THERMOmax microplate reader. Just prior to the assay all the proteins were treated with 2.0 mM (4-amidinophenyl)methanesulfonyl fluoride (APMSF) for 15 minutes at pH 5.5, after which they were diluted 1:100 with HBS and incubated for 45 minutes to allow for the decomposition of any unreacted APMSF at the neutral pH. The proteins were treated with APMSF before use and were inactivated for the sake of safety.

In test [2] the test system is HSP 90-dependent prekallikrein activation. Put plainly: HSP 90-dependent prekallikrein activation (HSP 90, HK, zinc, PK, S-2302). It is filed as biochemical, human. The following applies: purified HSP 90 activator, HK and zinc present. Here is the method:
as §1
HSP 90 was confirmed as a prekallikrein activator, which was functionally indistinguishable from the cytosolic extract (FIG. 2). A HUVEC activator system was functionally effective as well (FIG. 1). […] The incubation mixture used is as follows: […]

In test [3] the test system is activation of prekallikrein in the presence of phosphate and zinc ions. The experiment in a line: Prekallikrein activation by phosphate ion (PBS, zinc, HK, PK, S-2302). The following applies: phosphate ion activator, no FXIIa, HUVEC or HSP 90. It is filed as biochemical. On the procedure: as §1, with “safety. […]” for “safety.”

Entries after “also recorded” stand apart in the source; their conditions may differ. Where two headings read alike, the source gives them in different places.

Regarding `[Cl][Hg][Cl]` [HgCl2], the “inhibition of the prekallikrein activator in this system (in words)” value (“inhibition … in this system (in words)” below) in test [1] is recorded as “good inhibitors”. The “% inhibition of PK activation” value in test [1] (inhibitor concentration 1 mM) is on record as 98%.
With `CC(C)Cc1ccc(C(C)C(=O)O)cc1` (stereo not shown) [Ibuprofen], the “inhibition of HSP 90-dependent prekallikrein activation (in words)” value in test [2] is “inhibited by Ibuprofen dose-dependently”. In addition, the “inhibition of prekallikrein activation in the presence of phosphate and zinc ions (in words)” value in test [3] was “inhibited by Ibuprofen dose-dependently”.
On to `OCCS` [Mercaptoethanol], for which the “inhibition … in this system (in words)” value in test [1] is reported as “good inhibitors”. For the same molecule, the “% inhibition of PK activation” value in test [1] (inhibitor concentration 5%) turned out to be 85.5%.
For `O[C@@H](CS)[C@@H](O)CS` [DTT], the “% inhibition of PK activation” value in test [1] (inhibitor concentration 10 mM) is recorded as 69.1%.
With Corn Trypsin Inhibitor, in test [1] (inhibitor concentration 10 μM), the “% inhibition of PK activation” value stood at 94.3%. Also, the “inhibition … in this system (in words)” value in test [1] (listed as CTI) is recorded as “good inhibitors; also recorded: could be inhibited by CTI”. Also, in test [2], the “inhibition of HSP 90-dependent prekallikrein activation (in words)” value was “inhibited by CTI”.
Regarding Aprotinin, in test [1], the “inhibition … in this system (in words)” value is “good inhibitors”. For the same molecule, the “% inhibition of PK activation” value in test [1] (inhibitor concentration 100 μM) is recorded as 96.4%.
On to `N[C@@H](CCC(=O)N[C@@H](CS)C(=O)NCC(=O)O)C(=O)O` [Glutathione], for which, in test [1] (inhibitor concentration 100 μM), the “% inhibition of PK activation” value was found to be 18.6%.
For the molecule `N[C@@H](CS)C(=O)O` [Cysteine], the “% inhibition of PK activation” value in test [1] (inhibitor concentration 10 mM) was 59.6%.
With Cystatin, in test [1] (inhibitor concentration 10 μg/ml), the “% inhibition of PK activation” value is reported as 4.5%.
Regarding `O=C(O)CN(CCN(CC(=O)O)CC(=O)O)CC(=O)O` [EDTA], in test [1], the “% inhibition of PK activation” value was determined as 85.4% and the “inhibition … in this system (in words)” value was “good inhibitors”.
As to `C[C@H](CS)C(=O)N1CCC[C@H]1C(=O)O` [Captopril], the “inhibition … in this system (in words)” value in test [1] is on record as “good inhibitors”. Further, in test [1] (inhibitor concentration 10 mM), the “% inhibition of PK activation” value is given as 97.9%.
Turning to `NC(=O)CI` [Iodoacetamide], in test [1] (inhibitor concentration 10 mM), the “% inhibition of PK activation” value is listed as 7%.

B1: SBTI: soybean trypsin inhibitor (SBTI) (protein, UniProt P01070 25-205, looked up)
Trypsin inhibitor A: DFVLDNEGNPLENGGTYYILSDITAFGGIRAAPTGNERCPLTVVQSRNELDKGIGTIISSPYRIRFIAEGHPLSLKFDSFAVIMLCVGIPTEWSVVEDLPEGPAVKIGENKDAMDGWFRLERVSDDEFNNYKLVFCPQQAEDDKCGDIGISIDHDDGTRRLVVSKNKPLVVQFQKLDKESL
In the case of B1, the “inhibition … in this system (in words)” value in test [1] is listed as “good inhibitors”. The “% inhibition of PK activation” value in test [1] (inhibitor concentration 50 μg/ml) worked out at 98.6%.
